In patent US12448369B2 (Edgewise Therapeutics, Inc., priority 2023, dated 2025):

How the values were obtained:
[1] = molecular target: T1, Porcine ventricle myofibrils (ventricular myosin ATPase) (Sus scrofa, UniProt P79293); assay: Myofibril ATPase assay, porcine ventricle myofibrils; format: biochemical, porcine (Yucatan minipigs); conditions: porcine ventricle myofibrils
T1 construct: Myofibrils from porcine cardiac muscle was isolated from the left ventricle of Yucatan minipigs; tissue Exemplar Genetics; host or cells: left ventricle of Yucatan minipigs, myofibrils prepared in house
T1 sequence (P79293 whole entry): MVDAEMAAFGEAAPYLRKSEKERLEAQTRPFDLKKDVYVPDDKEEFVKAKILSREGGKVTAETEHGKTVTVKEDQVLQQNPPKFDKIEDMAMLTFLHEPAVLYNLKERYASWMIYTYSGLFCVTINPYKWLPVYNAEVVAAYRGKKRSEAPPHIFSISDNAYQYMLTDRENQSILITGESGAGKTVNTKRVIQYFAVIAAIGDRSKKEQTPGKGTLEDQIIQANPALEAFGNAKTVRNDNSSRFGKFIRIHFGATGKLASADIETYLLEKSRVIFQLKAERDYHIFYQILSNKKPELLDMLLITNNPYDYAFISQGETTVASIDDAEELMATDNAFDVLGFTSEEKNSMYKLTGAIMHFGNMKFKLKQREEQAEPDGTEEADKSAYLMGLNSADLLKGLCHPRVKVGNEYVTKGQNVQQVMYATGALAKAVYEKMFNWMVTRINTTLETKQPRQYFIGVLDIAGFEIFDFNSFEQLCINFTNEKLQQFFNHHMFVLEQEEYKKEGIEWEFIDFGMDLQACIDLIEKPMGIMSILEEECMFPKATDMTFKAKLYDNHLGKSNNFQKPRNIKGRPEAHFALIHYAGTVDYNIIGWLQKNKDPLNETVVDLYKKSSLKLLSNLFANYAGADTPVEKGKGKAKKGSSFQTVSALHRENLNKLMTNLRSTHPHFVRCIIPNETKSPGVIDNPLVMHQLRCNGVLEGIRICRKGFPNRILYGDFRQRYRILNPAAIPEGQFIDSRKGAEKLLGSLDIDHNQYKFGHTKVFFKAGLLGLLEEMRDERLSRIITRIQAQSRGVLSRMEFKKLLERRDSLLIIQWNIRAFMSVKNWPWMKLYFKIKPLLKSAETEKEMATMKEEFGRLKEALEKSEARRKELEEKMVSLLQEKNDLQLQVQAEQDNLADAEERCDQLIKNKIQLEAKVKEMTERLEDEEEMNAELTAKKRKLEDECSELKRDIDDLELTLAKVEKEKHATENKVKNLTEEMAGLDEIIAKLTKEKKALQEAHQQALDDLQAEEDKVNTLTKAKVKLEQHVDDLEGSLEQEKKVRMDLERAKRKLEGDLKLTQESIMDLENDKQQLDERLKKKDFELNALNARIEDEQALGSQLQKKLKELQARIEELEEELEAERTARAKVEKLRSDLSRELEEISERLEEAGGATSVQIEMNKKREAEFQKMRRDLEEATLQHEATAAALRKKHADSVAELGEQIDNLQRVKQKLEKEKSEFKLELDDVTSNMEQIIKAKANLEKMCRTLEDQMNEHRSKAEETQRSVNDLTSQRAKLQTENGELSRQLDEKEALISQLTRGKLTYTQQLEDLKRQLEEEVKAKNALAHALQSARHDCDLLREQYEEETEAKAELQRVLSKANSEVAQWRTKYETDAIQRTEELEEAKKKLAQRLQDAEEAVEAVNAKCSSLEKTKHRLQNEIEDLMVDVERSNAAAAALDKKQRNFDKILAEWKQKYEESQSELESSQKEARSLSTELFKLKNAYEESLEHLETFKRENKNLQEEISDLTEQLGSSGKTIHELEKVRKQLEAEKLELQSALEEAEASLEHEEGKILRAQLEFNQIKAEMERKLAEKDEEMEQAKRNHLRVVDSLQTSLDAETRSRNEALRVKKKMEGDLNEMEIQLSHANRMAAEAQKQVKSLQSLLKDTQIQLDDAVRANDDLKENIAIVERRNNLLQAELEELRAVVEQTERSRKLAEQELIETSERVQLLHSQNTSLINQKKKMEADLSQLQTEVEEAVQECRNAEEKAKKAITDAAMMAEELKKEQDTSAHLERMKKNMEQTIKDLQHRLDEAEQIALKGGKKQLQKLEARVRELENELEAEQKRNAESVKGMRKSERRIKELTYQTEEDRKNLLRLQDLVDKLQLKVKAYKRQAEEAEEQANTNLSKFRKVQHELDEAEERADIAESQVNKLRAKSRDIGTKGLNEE
Procedure, shortened: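 Test compounds acted on myofibrils isolated from the left ventricle of Yucatan minipigs. ADP formation was coupled via pyruvate kinase/lactate dehydrogenase to NADH oxidation, monitored kinetically at 340 nm over 75 min. Rates relative to vehicle were fitted with a 4-parameter logistic model, reported as Y75 (25% inhibition) or Y125 (activation) concentrations.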

[2] = test system: Rabbit Psoas myofibrils (skeletal myosin ATPase); assay: Myofibril ATPase assay, rabbit psoas (skeletal) myofibrils; format: biochemical; conditions: rabbit psoas myofibrils
Procedure, shortened: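 Values derive from concentration–response fits of NADH consumption rates at 340 nm, normalized to vehicle-only wells, as Y75 or Y125. Myofibril ATP turnover was linked to NADH via PK/LDH in Ca/EGTA-buffered PIPES, pH 7.0, and read over 75 min.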

[3] = test system: Porcine atria myofibrils (atrial myosin ATPase); assay: Myofibril ATPase assay, porcine atria myofibrils; format: biochemical; conditions: porcine atria myofibrils
Procedure, shortened: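 Atrial myofibril ATPase measured by NADH-coupled absorbance at 340 nm; vehicle-normalized slopes fitted to give Y75 or Y125 values.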

[4] = Y75 value (75% activity relative to no compound)

| Structure (SMILES) | Ventricular EC25 ([1]; Y75 value) [nM] | Skeletal EC25 ([2]; Y75 value) [nM] | Atrial EC25 [3, 4] [µM] | Ventricular EC25 ([1]; Y75 value (no ‡ mark)) [nM] | Skeletal EC25 ([2]; Y75 value (no ‡ mark)) [nM] | Atrial EC25 ([3]; ‡ Y125 value, not a Y75 value (125% activity relative to no compound)) | Atrial EC25 ([3]; Y75 value (no ‡ mark)) [µM] |
| --- | --- | --- | --- | --- | --- | --- | --- |
| Cc1c(CC(=O)N[C@@H](C)c2ccc(C#N)cc2F)c(=O)[nH]c2ccnc(OC3CC3)c12 [compound 202] | 830 | 110 | 0.11 |  |  |  |  |
| Cc1nc(C#N)cnc1[C@H](C)NC(=O)Cc1c(C)c2nc(C(F)(F)F)ccc2[nH]c1=O (single isomer, unassigned) [compound 139] | 180 | 20 | 0.08 |  |  |  |  |
| Cc1c(CC(=O)N[C@@H](C)c2ccc(F)cc2F)c(=O)[nH]c2ccnc(N)c12 [compound 352] | 31620 | 180 | 2.64 |  |  |  |  |
| Cc1c(CC(=O)N[C@H](C)c2ncc(C#N)cn2)c(=O)[nH]c2ccc(F)c(C3CC3)c12 (single isomer, unassigned) [compound 2059] |  |  |  | 56970 | 1090 | 100.00‡ μM |  |
| Cc1c(CC(=O)N[C@H](C)c2cnc(C#N)cn2)c(=O)[nH]c2ccc(F)cc12 [compound 1108] |  |  |  | 1440 | 370 |  | 6.47 |
| Cc1c(F)ccc2[nH]c(=O)c(CC(=O)N[C@H](C)c3ccc(C#N)cc3F)c(O)c12 [compound 19] |  |  |  | 1010 | 2920 |  | 100.00 |
| Cc1nccc2[nH]c(=O)c(CC(=O)N[C@@H](C)c3ccccc3O)c(C)c12 (single isomer, unassigned) [compound 321] | 100000 | 100000 | 100.00 |  |  |  |  |
| Cc1nccc2[nH]c(=O)c(CC(=O)N[C@@H]3COc4cccnc43)c(C)c12 (single isomer, unassigned) [compound 251] | 100000 | 100000 | 100.00 |  |  |  |  |
| Cc1cc(C#N)cnc1[C@H](C)NC(=O)Cc1c(O)c2c(C)c(F)ccc2[nH]c1=O [compound 1121] |  |  |  | 100000 | 100000 |  | 100.00 |
| Cc1c(CC(=O)N[C@H](C)c2ccc(C#N)nn2)c(=O)[nH]c2ccc(F)c(F)c12 [compound 1133] |  |  |  | 140 | 40 |  | 0.09 |
| C[C@@H](NC(=O)C1(c2cc3c(F)c(F)ccc3[nH]c2=O)CC1)c1cnc(C#N)cn1 (single isomer, unassigned) [compound 4829] |  |  |  | 6130 | 1150 |  | 0.45 |
| Cc1nc([C@@H](C)NC(=O)Cc2c(C)c3c(C)nccc3[nH]c2=O)ncc1C#N [compound 478] | 33120 | 65260 | 5.84 |  |  |  |  |
| COc1cccc([C@H](C)NC(=O)Cc2c(C)c3c(C)nccc3[nH]c2=O)c1 (single isomer, unassigned) [compound 315] | 100000 | 100000 | 100.00 |  |  |  |  |
| C[C@H](NC(=O)Cc1cc2c(F)c(F)ccc2[nH]c1=O)c1ccc(F)cc1F [compound 118] |  |  |  | 300 | 30 |  | 0.06 |
| C[C@@H](NC(=O)Cc1cc2c(C#N)cccc2[nH]c1=O)c1ncc(C#N)cn1 (single isomer, unassigned) [compound 2037] |  |  |  | 5310 | 790 |  | 2.88 |
| Cc1nccc2[nH]c(=O)c(CC(=O)N[C@H](C)c3ccc(O)nc3)c(C)c12 (single isomer, unassigned) [compound 295] | 100000 | 100000 | 100.00 |  |  |  |  |

| Structure (SMILES) | Ventricular EC25 ([1]; Y75 value) [nM] | Skeletal EC25 ([2]; Y75 value) [nM] | Atrial EC25 [3, 4] [µM] | Ventricular EC25 ([1]; Y75 value (no ‡ mark)) [nM] | Skeletal EC25 ([2]; Y75 value (no ‡ mark)) [nM] | Atrial EC25 ([3]; ‡ Y125 value, not a Y75 value (125% activity relative to no compound)) | Atrial EC25 ([3]; Y75 value (no ‡ mark)) [µM] |
| --- | --- | --- | --- | --- | --- | --- | --- |
| Cc1c(CC(=O)N[C@@H](C)c2ncc(C#N)cn2)c(=O)[nH]c2ccc(F)c(Cl)c12 (single isomer, unassigned) [compound 2056] |  |  |  | 290 | 60 |  | 0.11 |
| Cc1c(CC(=O)N[C@@H](C)c2ncc(C#N)cc2F)c(=O)[nH]c2cc(F)ccc12 [compound 1079] |  |  |  | 3040 | 140 |  | 0.44 |
| Cc1cnncc1[C@H](C)NC(=O)Cc1c(C)c2c(C)nccc2[nH]c1=O [compound 481] | 100000 | 100000 | 100.00 |  |  |  |  |
| Cc1c(CC(=O)N[C@@H](C)c2cnc(C#N)cn2)c(=O)[nH]c2cc(F)c(F)cc12 [compound 1103] |  |  |  | 1070 | 60 |  | 0.40 |
| C[C@H](NC(=O)Cc1c(C2CC2)c2cnccc2[nH]c1=O)c1ccc(F)cc1F [compound 444] | 20820 | 170 | 1.14 |  |  |  |  |
| Cc1c(CC(=O)N[C@@H]2c3c(F)cc(F)cc3OC2(C)C)c(=O)[nH]c2ccnc(C#N)c12 (single isomer, unassigned) [compound 188] | 39560 | 26500 | 2.43 |  |  |  |  |
| Cc1c(CC(=O)N[C@@H](C)c2ncc(C#N)cc2F)c(=O)[nH]c2ccnc(C#N)c12 (single isomer, unassigned) [compound 285] | 160 | 20 | 0.28 |  |  |  |  |
| C[C@@H](NC(=O)Cc1cc2ccc(F)cc2[nH]c1=O)c1ncc(C#N)cn1 (single isomer, unassigned) [compound 2033] |  |  |  | 100000 | 24120 |  | 100.00 |
| Cc1nccc2[nH]c(=O)c([C@H](C)C(=O)N[C@@H](C)c3ncc(C#N)cc3F)c(C)c12 (single isomer, unassigned) [compound 194] | 100000 | 1220 | 5.87 |  |  |  |  |
| Cc1c([C@H](C)C(=O)N[C@@H](C)c2ccc(F)cc2F)c(=O)[nH]c2ccnc(OC(F)(F)F)c12 (single isomer, unassigned) [compound 348] | 6440 | 510 | 0.34 |  |  |  |  |
| C[C@H](NC(=O)[C@H](C)c1cc2cnccc2[nH]c1=O)c1ccc(F)cc1F (single isomer, unassigned) [compound 443] | 100000 | 1340 | 100.00 |  |  |  |  |
| Cc1c(CC(=O)N[C@H](C)c2ncc(C#N)cc2F)c(=O)[nH]c2cc(F)c(F)cc12 [compound 1104] |  |  |  | 210 | 30 |  | 0.14 |
| Cc1nccc2[nH]c(=O)c(CC(=O)N[C@@H]3CNc4cc(F)cc(F)c43)c(C)c12 (single isomer, unassigned) [compound 181] | 2510 | 90 | 0.31 |  |  |  |  |
| Cc1c(CC(=O)N[C@@H](C)c2ncc(C3COC3)cn2)c(=O)[nH]c2ccc(F)c(F)c12 (single isomer, unassigned) [compound 2044] |  |  |  | 5840 | 29360 |  | 9.19 |
| Cc1c(CC(=O)N[C@@H](C)c2cnc(C#N)nc2)c(=O)[nH]c2ccc(F)cc12 [compound 1101] |  |  |  | 310 | 60 |  | 0.17 |
| Cc1c(CC(=O)N[C@@H](C)c2ccc(F)cc2F)c(=O)[nH]c2ccc(OCC(F)(F)F)nc12 [compound 400] | 100000 | 360 | 1.55 |  |  |  |  |
